What was measured:
TTR = target: T1, TTR (Homo sapiens, UniProt P02766); assay: Affinity binding equilibrium dissociation constant Kd of TTR and ligand molecules by nano ITC; settings: 10 μmol/L TTR solution, 100 μmol/L ligand solution dropped at 1 μL/min, read-out: Affinity binding equilibrium dissociation constants (Kd) of ligand molecule and TTR
T1 construct: made in house; host or cells: E. coli BL21 (DE3)
Protocol: The affinity binding equilibrium dissociation constant Kd of TTR and each ligand molecule or salts thereof described in Example 24 was determined by nano ITC (TA).

[1] = tested on: ROP SD suckling rats induced by hyperbaric oxygen chamber; assay: ROP (retinopathy of prematurity) SD suckling rats induced by hyperbaric oxygen chamber, eye dropping, EB staining of retina; assay type: in vivo
[2] = tested on: AMD C57BL/6 mice induced by laser retinal photocoagulation; assay: AMD (age-related macular degeneration) C57BL/6 mice induced by laser retinal photocoagulation, eye dropping, EB staining and Trypsin enzymatic hydrolysis of retina; assay type: in vivo; settings: for eyeball retinal leakage condition (in words) / number of retinal neovascularization / neovascularization condition (in words): 10 μmol/L, eye dropping twice per day
Text: (§1) 9-week-old C57BL/6 mice were subject to retinal photocoagulation by krypton laser (647 nm), with a power of 360 mW, a diameter of 50 μm, a time of 0.05 s, 8 photocoagulation site for each eye, for inducing the neovascularization in choroid, and gradually proceeding to retinal hyperplasia to obtain AMD C57BL/6 mice. AMD C57BL/6 mice were divided into a dropping group and a non-dropping group.
as §1, with “group. […] The animals were sacrificed after eye dropping for 2 weeks, and the retina was stripped for EB staining to observe the retinal leakage conditions, and for Trypsin enzymatic hydrolysis to observe the density of neovascularization.” for “group.”
9-week-old C57BL/6 mice were subject to retinal photocoagulation by krypton laser (647 nm), with a power of 360 mW, a diameter of 50 μm, a time of 0.05 s, 8 photocoagulation site for each eye, for inducing the neovascularization in choroid, and gradually proceeding to retinal hyperplasia to obtain AMD C57BL/6 mice. […] Wherein, the left eye was dropped with human TTR prepared in Example 5, or human TTR prepared in Example 5 added with the excipient, specifically with 10 μmol/L human TTR (saline solution), 10 μmol/L human TTR (saline solution+6 mg/mL sodium carboxymethyl cellulose), 10 μmol/L human TTR (saline solution+6 mg/mL PEG400), 10 μmol/L human TTR (saline solution+0.4 mg/mL dextran 70) and 10 μmol/L human TTR (saline solution+20 mg/mL chondroitin sulfate A sodium salt); the right eye was dropped with saline solution, or saline solution added with the excipient as control, specifically with saline solution, saline solution+6 mg/mL sodium carboxymethyl cellulose, saline solution+6 mg/mL PEG400, saline solution+0.4 mg/mL dextran 70 and saline solution+20 mg/mL chondroitin sulfate A sodium salt). In addition, there was another group of normal […] C57BL/6 mice as a normal control group (5 mice). The animals were sacrificed after eye dropping for 2 weeks, and the retina was stripped for EB staining to observe the retinal leakage conditions, and for Trypsin enzymatic hydrolysis to observe the density of neovascularization.
9-week-old C57BL/6 mice were subject to retinal photocoagulation by krypton laser (647 nm), with a power of 360 mW, a diameter of 50 μm, a time of 0.05 s, 8 photocoagulation site for each eye, for inducing the neovascularization in choroid, and gradually proceeding to retinal hyperplasia to obtain AMD C57BL/6 mice. […] Wherein, the left eye was dropped with human TTR prepared in Example 5, or human TTR prepared in Example 5 added with the ligand, specifically with 10 μmol/L human TTR (saline solution+2% hyaluronic acid), 10 μmol/L human TTR (saline solution+2% hyaluronic acid+10 diclofenac sodium), 10 μmol/L human TTR (saline solution+2% hyaluronic acid+5 μmol/L vitamin A+5% Tween 80) and 10 μmol/L human TTR (saline solution+2% hyaluronic acid+5 μmol/L luteoloside); the right eye was dropped with saline solution+2% hyaluronic acid, or saline solution+2% hyaluronic acid+ligand as control, specifically with saline solution+2% hyaluronic acid, saline solution+2% hyaluronic acid+10 diclofenac sodium, saline solution+2% hyaluronic acid+5 μmol/L vitamin A+5% Tween 80 and saline solution+2% hyaluronic acid+5 luteoloside. In addition, there was another group of normal C57BL/6 mice as a normal control group (5 mice). The animals were sacrificed after eye dropping for 2 weeks, and the retina was stripped for EB staining to observe the retinal leakage conditions, and for Trypsin enzymatic hydrolysis to observe the density of neovascularization.

[3] = tested on: DR SD rats induced by STZ; assay: DR (diabetic retinopathy) SD rats induced by STZ, eye dropping, EB staining and Trypsin enzymatic hydrolysis of retina; assay type: in vivo; settings: for eyeball retinal leakage condition (in words) / number of retinal neovascularization (in words): eye dropping twice per day
Protocol: 8-week-old SD rats weighing 200-250 g was fasted for 12-18 h, and treated with intraperitoneally injection of 2% STZ (60 mg/kg), followed by cutting the tail and collecting blood thereof after 48 h and 72 h. […] DR SD rats were divided into 2 large groups, one is DR SD rats without any treatment (5 rats), and the other is the human TTR eye dropping group (25 rats) dropped with the human TTR prepared in Example 5, each left eye dropped with human TTR (5-20 μmol/L) (normal saline+2% hyaluronic acid) twice a day, and each right eye dropped with saline+2% hyaluronic acid; in addition, another group of normal SD rats (No eye dropping) served as a normal control group (5 rats).
8-week-old SD rats weighing 200-250 g was fasted for 12-18 h, and treated with intraperitoneally injection of 2% STZ (60 mg/kg), followed by cutting the tail and collecting blood thereof after 48 h and 72 h. […]
8-week-old SD rats weighing 200-250 g, was fasted for 12-18 h, and treated with intraperitoneally injection of 2% STZ (60 mg/kg), followed by cutting the tail and collecting blood thereof after 48 h and 72 h. […] Wherein, the left eye was dropped with human TTR prepared in Example 5, or human TTR prepared in Example 5 added with the ligand, specifically with 10 μmol/L human TTR (saline solution+2% hyaluronic acid), 10 μmol/L human TTR (saline solution+2% hyaluronic acid+10 diclofenac sodium), 10 μmol/L human TTR (saline solution+2% hyaluronic acid+5 μmol/L vitamin A+5% Tween 80) and 10 μmol/L human TTR (saline solution+2% hyaluronic acid+5 luteoloside); the right eye was dropped with saline solution+2% hyaluronic acid, or saline solution+2% hyaluronic acid+ligand as control, specifically with saline solution+2% hyaluronic acid, saline solution+2% hyaluronic acid+10 diclofenac sodium, saline solution+2% hyaluronic acid+5 μmol/L vitamin A+5% Tween 80 and saline solution+2% hyaluronic acid+5 μmol/L luteoloside. In addition, there was another group of normal SD rats as a normal control group (5 rats). All SD rats were fed for 3 months, followed by stripping the retina for staining with Evans Blue (EB) to observe the retinal vascular leakage, for Trypsin enzymatic hydrolysis to observe the density of neovascularization.

TTR dimer = TTR dimer (Homo sapiens, UniProt P02766); settings: static co-crystallization model in the PDB database (3CFQ); cited from earlier work
[4] = ROP SD suckling rats induced by hyperbaric oxygen chamber, 5 days of eye dropping, ligand independently (no TTR) in saline + 2% hyaluronic acid: 10 μmol/L diclofenac sodium/5 μmol/L vitamin A + 5% Tween 80/5 μmol/L luteoloside, right eye
[5] = AMD C57BL/6 mice induced by laser retinal photocoagulation, 2 weeks of eye dropping, ligand independently (no TTR) in saline + 2% hyaluronic acid: 10 μmol/L diclofenac sodium/5 μmol/L vitamin A + 5% Tween 80/5 μmol/L luteoloside, right eye
[6] = DR SD rats induced by STZ, 3 months of eye dropping, ligand independently (no TTR) in saline + 2% hyaluronic acid: 10 μmol/L diclofenac sodium/5 μmol/L vitamin A + 5% Tween 80/5 μmol/L luteoloside, right eye
[7] = ROP SD suckling rats, 10 μmol/L in saline solution + 2% hyaluronic acid, eyedropping once per day, 5 days
[8] = DR SD rats induced by STZ, 3 months
[9] = DR SD rats, 10 μmol/L in saline solution + 2% hyaluronic acid, eyedropping twice a day, 3 months
[10] = AMD C57BL/6 mice, 10 μmol/L in saline solution + 2% hyaluronic acid, eyedropping twice per day, 2 weeks

| Compound | Kd (TTR) [nM] | Retinal leakage area [1, 4] [%] | No. of retinal neovascularization (10 visual fields) [2, 5] | Retinal leakage area [2, 5] [%] | No. of retinal neovascularization (10 visual fields) [3, 6] | Retinal leakage area [3, 6] [%] | further results |
| --- | --- | --- | --- | --- | --- | --- | --- |
| O=C(O)Cc1ccccc1Nc1c(Cl)cccc1Cl [Diclofenac sodium, diclofenac sodium, reference compound] | 45 | 48.5 ± 5.8 | 85 ± 6 | 25.2 ± 3.0 | 80 ± 9 | 30.4 |  |
| O=c1cc(-c2ccc(O)c(O)c2)oc2cc(O[C@@H]3O[C@H](CO)[C@@H](O)[C@H](O)[C@H]3O)cc(O)c12 [Luteoloside, luteoloside, reference compound] | 129 | 51.2 ± 6.8 | 82 ± 8 | 21.3 ± 2.2 | 79 ± 9 | 27.6 |  |
| CC1=C(/C=C/C(C)=C/C=C/C(C)=C/CO)C(C)(C)CCC1 [Vitamin A, retinol, reference compound] | 22.7 | 46.9 ± 4.9 | 79 ± 10 | 26.7 ± 3.4 | 76 ± 8 | 28.9 |  |
| rat TTR: recombinant rat TTR, amino acid sequence SEQ ID NO: 9 |  |  |  |  |  |  | Retinal leakage area [1, 7]: 3.6%; eyeball retinal leakage condition (in words) [3, 8]: significantly inhibited; number of retinal neovascularization (in words) [3, 8]: reduced significantly; No. of retinal neovascularization (10 visual fields) [3, 9]: 13 ± 2; Retinal leakage area [3, 9]: 6.2 ± 0.7% |
| CC1=C(/C=C/C(C)=C/C=C/C(C)=C/CO)C(C)(C)CC=C1 [Vitamin A2, 3-dehydroretinol] | 23.5 |  |  |  |  |  |  |
| O=C(O)Cc1ccccc1Nc1c(Cl)cccc1Cl [diclofenac] |  |  |  |  |  |  | molecules of ligand that one molecule of TTR dimer can bind (TTR dimer): two molecules |
| mouse TTR: recombinant mouse TTR, amino acid sequence SEQ ID NO: 10 |  |  |  |  |  |  | No. of retinal neovascularization (10 visual fields) [2, 10]: 10 ± 3; Retinal leakage area [2, 10]: 4.2 ± 0.5%; eyeball retinal leakage condition (in words) ([2]; AMD C57BL/6 mice, 2 weeks): inhibited significantly; number of retinal neovascularization / neovascularization condition (in words) ([2]; AMD C57BL/6 mice, 2 weeks): reduced significantly |
| human TTR-CL: human mature TTR losing C terminus-TNPKE, amino acid sequence of SEQ ID NO: 11 |  |  |  |  |  |  | Retinal leakage area [1, 7]: 3.0%; No. of retinal neovascularization (10 visual fields) [2, 10]: 11 ± 2; Retinal leakage area [2, 10]: 4.8 ± 0.6%; eyeball retinal leakage condition (in words) ([2]; AMD C57BL/6 mice, 2 weeks): inhibited significantly; number of retinal neovascularization / neovascularization condition (in words) ([2]; AMD C57BL/6 mice, 2 weeks): reduced significantly; eyeball retinal leakage condition (in words) [3, 8]: significantly inhibited; number of retinal neovascularization (in words) [3, 8]: reduced significantly; No. of retinal neovascularization (10 visual fields) [3, 9]: 10 ± 1; Retinal leakage area [3, 9]: 5.7 ± 0.9% |

— patent publication US20220168434A1, “APPLICATION OF TRANSTHYRETIN IN ENTERING EYE AND PREPARING DROP” (YIZHOU (SHANGHAI) BIOLOGICAL MEDICINE CO, LTD., priority 2019, published 2022)
